Measurements as given in patent EP1806348A2, “Pyrido (2,3-D)Pyrimidines as inhibitors of cellular proliferation” (Warner-Lambert Company LLC, priority 1997, dated 1998).

Key:
c-Src = c-Src (Homo sapiens, UniProt P12931); assay: c-Src protein kinase assay; assay type: biochemical; conditions: Table 5
Procedure: C-Src kinase was purified from baculovirus infected insect cell lysates using an antipeptide monoclonal antibody directed against the N-terminal amino acids (amino acids 2-17) of c-Src. The antibody, covalently linked to 0.65 µm latex beads, was added to a suspension of insect cell lysis buffer comprised of 150 mM NaCl, 50 mM Tris pH 7.5, 1 mM DTT, 1% NP-40,2 mM EGTA, 1 mM sodium vanadate, 1 mM PMSF, 1 µg/mL each of leupeptin, pepstatin, and aprotinin. Insect cell lysate containing c-Src protein was incubated with these beads for 3 to 4 hours at 4°C with rotation. At the end of the lysate incubation, the beads were rinsed three times in lysis buffer, resuspended in lysis buffer containing 10% glycerol, and frozen. These latex beads were thawed, rinsed three times in assay buffer (40 mM Tris, pH 7.5, […]) and suspended in the same buffer. In a Millipore 96-well plate with a 0.65 µm polyvinylidine membrane bottom were added the reaction components: 10 µL c-Src beads, 10 µL of 2.5 mg/mL poly GluTyr substrate, 5 µM ATP containing 0.2 µCi labeled ^32P-ATP, 5 µL DMSO containing inhibitors or as a solvent control, and buffer to make the final volume 125 µL. The reaction was started at room temperature by addition of the ATP and quenched 10 minutes later by the addition of 125 µL of 30% TCA, 0.1 M sodium pyrophosphate for 5 minutes on ice. […] The filters were then punched, counted in a liquid scintillation counter, and the data examined for inhibitory activity in comparison to a known inhibitor such as erbstatin. […]

cdk4/D = cdk4/D (Homo sapiens, UniProt P11802); assay: Cyclin-dependent kinase 4 (cdk4) enzyme assay, 32P incorporation into retinoblastoma; assay type: biochemical; conditions: Table 1; 25 µM ATP, retinoblastoma substrate
Procedure: A typical assay, for instance, measures inhibitory activity against the cyclin D dependent kinase 4 enzyme (cdk4/D). […] The cdk 4 assay was carried out as follows.
(§1) All components except the ATP were added to the wells, and the plate was placed on a plate mixer for 2 minutes. […] The reaction was terminated by addition of 0.1 mL of 20% trichloroacetic acid (TCA). The plate was kept at 4°C for at least 1 hour to allow the substrate to precipitate. The wells were then washed five times with 0.2 mL of 10% TCA and ^32P incorporation was determined with a beta plate counter (Wallac Inc., Gaithersburg, MD).

cdk6/D2 = cdk6/D2 (Homo sapiens, UniProt Q00534); assay: cdk6/D2 enzyme assay, similar to cdk4 assay; assay type: biochemical; conditions: read-out: IC50 against cdk6/D2
Procedure: (§2) The total volume was 0.1 mL containing a final concentration of 20 mM TRIS (tris[hydroxymethyl]aminomethane), at pH 7.4, 50 mM NaCl, 1 mM dithiothreitol, 10 mM MgCl2, 25 µM ATP containing 0.25 µCi of [^32P]ATP, 20 ng of cdk4, 1 µg of retinoblastoma, and appropriate dilutions of a compound of the present invention. All components except the ATP were added to the wells, and the plate was placed on a plate mixer for 2 minutes. The reaction was started by adding [^32P]ATP and the plate was incubated at 25°C for 15 minutes. The reaction was terminated by addition of 0.1 mL of 20% trichloroacetic acid (TCA). The plate was kept at 4°C for at least 1 hour to allow the substrate to precipitate. The wells were then washed five times with 0.2 mL of 10% TCA and ^32P incorporation was determined with a beta plate counter (Wallac Inc., Gaithersburg, MD).
(§3) Several of the invention compounds have also shown good inhibitory activity against cdk6/D2 and cdk6/D3 enzymes. These assays are carried out in a manner similar to that described above for cdk4, by simply employing the appropriate cdk6 kinase enzyme.

cdk6/D3 = cdk6/D3 (Homo sapiens, UniProt Q00534); assay: cdk6/D3 enzyme assay, similar to cdk4 assay; assay type: biochemical; conditions: read-out: IC50 against cdk6/D3
Procedure: as §2, §3

cdc2/cyclinB = cdc2/cyclinB (Homo sapiens, UniProt P06493); assay: Cyclin-dependent kinase assay (cdc2/cyclinB); assay type: biochemical; conditions: Table 1; read-out: cdk1/B IC50
Procedure: as §1, with “TCA.” for “trichloroacetic acid (TCA).”, “incorporation” for “incorporation was”

cdk2/cyclinA = cdk2/cyclinA (Homo sapiens, UniProt P24941); assay: Cyclin-dependent kinase assay (cdk2/cyclinA); assay type: biochemical; conditions: Table 1
Procedure: as §1, with “TCA.” for “trichloroacetic acid (TCA).”, “incorporation” for “incorporation was”

[1] = test system: MCF-7 human mammary tumor xenografts; assay: MCF-7 tumor xenograft growth inhibition in mice; assay type: in vivo, female nude mice; conditions: doses of 5 to 20 mg/kg, schedule q12h × 2; days 1-14
cdk2/cyclinE = cdk2/cyclinE (Homo sapiens, UniProt P24941); assay: Cyclin-dependent kinase assay (cdk2/cyclinE); assay type: biochemical; conditions: Table 1; read-out: cdk2/E IC50
Procedure: as §1, with “TCA.” for “trichloroacetic acid (TCA).”, “incorporation” for “incorporation was”

[2] = Plasma levels in mice after dosing; assay type: in vivo, nude mice; conditions: at 30 minutes following dosing
Procedure: For example, the compound of Example 60 was administered orally at 5 mg/kg to mice, and plasma levels of about 200 nM were measured at 30 minutes following dosing. The compound was also administered intraperitoneally at 12 mg/kg and produced a peak plasma concentration of 10,000 nM at 30 minutes following dosing.

Sequence of cdc2/cyclinB (P06493 whole entry): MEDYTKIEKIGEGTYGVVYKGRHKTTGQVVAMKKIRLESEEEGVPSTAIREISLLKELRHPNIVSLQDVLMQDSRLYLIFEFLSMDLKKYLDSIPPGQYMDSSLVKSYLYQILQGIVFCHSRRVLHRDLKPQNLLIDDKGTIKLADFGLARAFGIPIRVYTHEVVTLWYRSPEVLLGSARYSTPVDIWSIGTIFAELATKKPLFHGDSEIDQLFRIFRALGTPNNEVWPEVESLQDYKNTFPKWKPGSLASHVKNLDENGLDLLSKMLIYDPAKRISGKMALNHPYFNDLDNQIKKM
Sequence of cdc2/cyclinB (P14635 whole entry, further chain): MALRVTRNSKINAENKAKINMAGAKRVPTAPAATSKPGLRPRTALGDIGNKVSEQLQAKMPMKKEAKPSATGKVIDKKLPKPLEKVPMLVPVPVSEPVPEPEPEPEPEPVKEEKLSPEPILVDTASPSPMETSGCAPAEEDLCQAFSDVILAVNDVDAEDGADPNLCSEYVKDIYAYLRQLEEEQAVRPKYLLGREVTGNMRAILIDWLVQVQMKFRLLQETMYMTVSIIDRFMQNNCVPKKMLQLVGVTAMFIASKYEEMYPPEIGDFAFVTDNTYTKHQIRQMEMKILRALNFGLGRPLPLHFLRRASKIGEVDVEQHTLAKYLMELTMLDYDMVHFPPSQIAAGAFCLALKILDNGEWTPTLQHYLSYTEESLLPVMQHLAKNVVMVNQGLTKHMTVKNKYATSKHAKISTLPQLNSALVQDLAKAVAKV
Sequence of cdk4/D (P11802 whole entry): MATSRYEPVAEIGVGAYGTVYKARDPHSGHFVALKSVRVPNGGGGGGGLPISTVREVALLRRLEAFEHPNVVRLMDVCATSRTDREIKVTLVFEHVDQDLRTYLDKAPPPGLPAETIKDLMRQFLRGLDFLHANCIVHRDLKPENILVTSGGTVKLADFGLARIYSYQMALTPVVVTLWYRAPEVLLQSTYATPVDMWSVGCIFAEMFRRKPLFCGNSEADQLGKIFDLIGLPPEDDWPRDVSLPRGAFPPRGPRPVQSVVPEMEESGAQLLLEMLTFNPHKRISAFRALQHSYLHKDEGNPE
Sequence of cdk4/D (P24385 whole entry, further chain): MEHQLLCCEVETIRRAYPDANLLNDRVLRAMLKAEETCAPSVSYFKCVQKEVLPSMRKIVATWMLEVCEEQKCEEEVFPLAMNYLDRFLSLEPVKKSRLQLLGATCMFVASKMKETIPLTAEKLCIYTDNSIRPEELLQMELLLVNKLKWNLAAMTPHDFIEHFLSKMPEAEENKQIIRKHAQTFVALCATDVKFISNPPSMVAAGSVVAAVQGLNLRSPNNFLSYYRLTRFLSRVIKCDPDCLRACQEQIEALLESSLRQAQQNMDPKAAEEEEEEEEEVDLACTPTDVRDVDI
Sequence of c-Src (P12931 whole entry, the tested form may be a part): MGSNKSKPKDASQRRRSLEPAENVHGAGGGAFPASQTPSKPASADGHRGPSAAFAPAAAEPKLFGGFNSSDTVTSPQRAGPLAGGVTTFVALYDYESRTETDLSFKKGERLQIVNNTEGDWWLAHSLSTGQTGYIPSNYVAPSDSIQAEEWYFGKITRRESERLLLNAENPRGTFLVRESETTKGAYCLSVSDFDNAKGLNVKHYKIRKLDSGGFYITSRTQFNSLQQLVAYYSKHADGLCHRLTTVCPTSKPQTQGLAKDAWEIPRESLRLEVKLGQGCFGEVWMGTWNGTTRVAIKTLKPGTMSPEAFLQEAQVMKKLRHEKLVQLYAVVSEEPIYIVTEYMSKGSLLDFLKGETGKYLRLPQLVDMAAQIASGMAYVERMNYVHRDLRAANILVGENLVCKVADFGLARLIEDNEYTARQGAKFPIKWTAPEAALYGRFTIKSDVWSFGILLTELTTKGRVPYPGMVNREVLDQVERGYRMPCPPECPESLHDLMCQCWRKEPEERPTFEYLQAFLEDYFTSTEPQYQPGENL
Sequence of cdk6/D3 (P30281 whole entry): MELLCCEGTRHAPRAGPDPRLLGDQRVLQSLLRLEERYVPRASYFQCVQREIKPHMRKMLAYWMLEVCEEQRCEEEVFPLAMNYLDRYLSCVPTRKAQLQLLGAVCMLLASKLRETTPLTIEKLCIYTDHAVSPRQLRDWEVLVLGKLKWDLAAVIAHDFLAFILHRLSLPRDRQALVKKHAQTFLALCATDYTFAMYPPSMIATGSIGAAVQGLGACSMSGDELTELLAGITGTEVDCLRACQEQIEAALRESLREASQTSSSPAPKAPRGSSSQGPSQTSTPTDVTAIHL
Sequence of cdk6/D3 (Q00534 whole entry): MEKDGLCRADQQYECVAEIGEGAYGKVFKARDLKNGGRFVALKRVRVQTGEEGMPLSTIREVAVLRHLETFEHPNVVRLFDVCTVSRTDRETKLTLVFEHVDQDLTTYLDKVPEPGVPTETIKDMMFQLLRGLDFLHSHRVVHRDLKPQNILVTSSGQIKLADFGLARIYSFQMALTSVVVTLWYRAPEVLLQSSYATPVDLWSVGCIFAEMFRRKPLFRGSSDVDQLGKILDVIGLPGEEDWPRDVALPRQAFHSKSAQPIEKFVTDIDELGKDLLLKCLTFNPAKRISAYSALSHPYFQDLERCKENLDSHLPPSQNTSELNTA
Sequence of cdk6/D2 (Q00534 whole entry): as above
Sequence of cdk6/D2 (P30279 whole entry, further chain): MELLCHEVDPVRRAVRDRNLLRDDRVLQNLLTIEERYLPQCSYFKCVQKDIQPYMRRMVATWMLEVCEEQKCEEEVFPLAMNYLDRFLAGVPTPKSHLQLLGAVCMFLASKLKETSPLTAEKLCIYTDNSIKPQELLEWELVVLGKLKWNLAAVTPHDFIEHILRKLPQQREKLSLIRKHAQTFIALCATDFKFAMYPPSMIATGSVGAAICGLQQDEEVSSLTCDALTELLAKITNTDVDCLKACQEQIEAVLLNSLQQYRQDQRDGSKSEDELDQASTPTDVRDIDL

SMILES | IC50 (c-Src) | IC50 (cdk4/D) | IC50 (cdc2/cyclinB) | IC50 (cdk2/cyclinA) | IC50 (cdk2/cyclinE) | further results
O=c1ccc2cnc(Nc3ccccc3)nc2n1-c1ccccc1 [Example 101, 2-Phenylamino-8-phenyl-8H-pyrido[2,3-d]pyrimidin-7-one] | 21200 nM | 1700 nM |  |  |  | 
O=c1ccc2cnc(Nc3ccc(N4CCC(CCCO)CC4)cc3)nc2n1C1CC2CCC1C2 (stereo not shown) [Example 214, 8-Bicyclo[2.2.1]hept-2-yl-2-{4-[4-(3-hydroxy-propyl)-piperidin-1-yl]-phenylamino}-8H-pyrido[2,3-d]pyrimidin-7-one] |  |  |  |  |  | IC50 (cdk6/D2): 7.1 nM; IC50 (cdk6/D3): 13 nM
CC(C)n1c(=O)ccc2cnc(Nc3ccc(N4CCN(C)CC4)cc3)nc21 [Example 60, 8-Isopropyl-2-[4-(4-methylpiperazin-1-yl)-phenylamino]-8H-pyrido[2,3-d]pyrimidin-7-one] | 890 nM | 32 nM | 675 nM | 58 nM | 270 nM | tumor growth inhibitions [1]: statistically insignificant tumor growth inhibitions; peak plasma concentration ([2]; intraperitoneally at 12 mg/kg): 10,000 nM; concentration at 30 min ([2]; nude, mouse, plasma, po, mice, orally at 5 mg/kg): ~200 nM
CCN(CC)CCOc1ccc(Nc2ncc3ccc(=O)n(C(C)C)c3n2)cc1 [Example 59, 2-[4-(2-Diethylaminoethoxy)-phenylamino]-8-isopropyl-8H-pyrido[2,3-d]pyrimidin-7-one] | 4430 nM | 45 nM | 1240 nM | 80 nM | 800 nM | 
CCN(CC)CCOc1ccc(Nc2ncc3ccc(=O)n(CC)c3n2)cc1 [Example 52, 2-[4-(2-Diethylaminoethoxy)-phenylamino]-8-ethyl-8H-pyrido[2,3-d]pyrimidin-7-one] | 1030 nM | 160 nM | 2660 nM | 750 nM | 2340 nM | 
CCCCn1c(=O)ccc2cnc(Nc3ccccc3)nc21 [Example 40, 8-Butyl-2-phenylamino-8H-pyrido[2,3-d]pyrimidin-7-one] | 19500 nM | 1490 nM | 205 nM | 37 nM | 58 nM | 
CCn1c(=O)ccc2cnc(Nc3ccncc3)nc21 [Example 50, 8-Ethyl-2-(pyridin-4-ylamino)-8H-pyrido[2,3-d]pyrimidin-7-one] | 15000 nM | 2000 nM |  |  |  | 

Second part, led by results:

IC50 (c-Src) | IC50 (cdk4/D) | IC50 (cdc2/cyclinB) | IC50 (cdk2/cyclinA) | IC50 (cdk2/cyclinE) | SMILES | further results
1100 nM |  |  |  |  | O=c1ccc2cnc(Nc3ccc(N4CCC(O)CC4)cc3)nc2n1C1CCCC1 [Example 198, 8-Cyclopentyl-2-[4-(4-hydroxy-piperidin-1-yl)-phenylamino]-8H-pyrido[2,3-d]pyrimidin-7-one] | 
545 nM |  |  |  |  | CN1CCN(c2ccc(Nc3ncc4ccc(=O)n(CCCOCc5ccccc5)c4n3)cc2)CC1 [Example 115, 8-(3-Benzyloxy-propyl)-2-[4-(4-methyl-piperazin-1-yl)-phenylamino]-8H-pyrido[2,3-d]pyrimidin-7-one] | 
